For data set [1] the following is noted: at 12 h after administration in MAD study, cited from earlier work.
Data set [2] concerns postmenopausal women with osteoporosis or osteopenia. Also noted: method as in PMID 21312264, PMID 23873670. The conditions noted are these: OCEAN study, cited from earlier work.
The conditions of data set [3]: cited from earlier work.
A further data set can be described thus: Solubility of ONO-5334. The conditions noted are these: at acidic pH. The class given is physicochemical.
Data set [4] concerns serum C-telopeptide of type I collagen (sCTX). Also noted: method as in PMID 26188109. As to conditions: PKPD study, SR tablets, cited from earlier work.
Data set [5] relates to postmenopausal women with osteoporosis or osteopenia. Also noted: method as in PMID 21312264, PMID 23873670. As to conditions: 300 mg QD, OCEAN study; cited from earlier work.
The subject of data set [6] is serum C-telopeptide of type I collagen (sCTX). Description: Simulation of sCTX inhibition from plasma ONO-5334 concentrations with sigmoidal Emax model. Also noted: species or system human. The text has this: PK data from the MAD study and the relationship between plasma ONO-5334 levels and sCTX inhibition in healthy postmenopausal women obtained from the PKPD study were used in simulation of the antiresorptive effect of ONO-5334 [29, 31]. Our previous PK data for 14 days after repeated administration were also used in the simulation. sCTX inhibition for doses and regimens in the OCEAN study were simulated using plasma ONO-5334 levels and the sigmoidal Emax model in the PKPD study (Fig. 1). The sigmoidal Emax model was fitted to data using log-transformed ONO-5334 plasma concentrations and effects on sCTX inhibition, using the following equation [32]. Effect=E0+Emax×C^r/EC50r+C^r

Details of data set [7]: method as in earlier work. As to conditions: at morning on 12 month in the OCEAN study, full analysis set, cited from earlier work.
Data set [8] concerns postmenopausal women with osteoporosis or osteopenia. As to the kind of experiment: BMD increase (DXA) in the OCEAN study and linear regression against mean sCTX inhibition over 24 h. As to conditions: at 1 year. The class given is in vivo, human. The protocol:
PK data at 50 mg BID, 100 mg QD and 300 mg QD were used from the 15-day multiple-dosing cohort in a phase 1 study of ONO-5334 IR tablets (MAD study, n = 96). The MAD study was a randomized, double-blind, single-center study conducted at the Kendle Clinical Pharmacology Unit, Utrecht, The Netherlands, from April to November 2006 (EudraCT: not applicable). The sigmoidal relationship (Emax model) between plasma ONO-5334 concentrations and sCTX inhibition was taken from a study using SR tablets of ONO-5334 (PKPD study, n = 10). The PKPD study was a phase 1, 2-part (4- and 2-way crossover), open-label, randomized trial conducted at Pharmaceutical Profiles, Ruddington, Nottingham, United Kingdom, from January 2008 to April 2008 (European Union Clinical Trials Register [EudraCT]: 2007–005206-47). Data for sCTX inhibition and increase in BMD after 1 year of treatment were taken from the OCEAN study (n = 285). […]
The relationship of sCTX inhibition for 24 h and the mean increase in BMD for the lumbar spine (L1-L4) and total hip after 1 year of treatment in the OCEAN study were analyzed. BMD in the OCEAN study was measured using dual-energy X-ray absorptiometry (DXA) (Prodigy, GE Lunar, Madison, WI, USA). […]

Read-outs that look alike come from different tables or passages of the source.

Consider `C[C@@H]1CS/C(=N\NC(=O)C(=O)[C@@H](NC(=O)C2CCCCCC2)C2CCOCC2)N1C` [ONO-5334], for which the “Plasma ONO-5334 concentration (Mean ± SD)” value in data set [1] (50 mg BID) is listed as 1.82 ± 0.33 ng/mL; in data set [1] (100 mg QD), 2.74 ± 0.99 ng/mL; in data set [1] (300 mg QD), 14.5 ± 6.33 ng/mL; in data set [7] (50 mg BID), 2.51 ± 1.60 ng/mL; in data set [7] (100 mg QD), 4.51 ± 3.26 ng/mL; in data set [7] (300 mg QD) it was 14.4 ± 10.6 ng/mL. Besides, the “effect on BMD” value in [2] (50 mg BID and 300 mg QD) is given as “increased BMD at all measured sites”. Besides, in data set [2] (100 mg QD), the “efficacy for increasing BMD compared to 50 mg BID and 300 mg QD” value is recorded as “less efficacy”. The “PK parameters, Cmax and AUC, postprandial administration compared with a fasted state” value in data set [3] is given as “do not differ significantly”. Besides, the “time for trough plasma ONO-5334 level to reach steady state” value in data set [3] (repeated administration, after the first administration, earlier phase I studies) was 2 days. Further, the solubility entry in the data set “Solubility of ONO-5334” is reported as “high”. Further, the “effect span (Emax) of sigmoidal Emax model for sCTX” value in [4] is recorded as −54.0%. In data set [4] (plasma concentration), the “half-maximal effective concentration of ONO-5334 (EC50) for sCTX inhibition” value is 2.07 ng/mL. Further, the safety result in data set [5] is on record as “no safety concerns”. Moreover, the “Cmax relative to the concentration required for 99% Emax” value in [6] (50 mg BID) is reported as 4 times; in data set [6] (100 mg QD), 14 times; in [6] (300 mg QD), 56 times. Besides, the “maximum BMD increase (100% Emax for 24 h) calculated by linear regression” value in [8] (lumbar spine) is given as 4.85%; in data set [8] (total hip) it was 3.05%.

Source of the values: PMC5477094, “Antiresorptive effect of a cathepsin K inhibitor ONO-5334 and its relationship to BMD increase in a phase II trial for postmenopausal osteoporosis” (BMC Musculoskeletal Disorders, 2017).
